Assay results: patent publication US11045438B2, “Cysteine composition and injection” (Exela Sterile Medicines LLC, priority 2019, dated 2021)
Converted amounts (≈) assume the structure as drawn. Like-named read-outs stand apart in the source and are kept apart here.

How the values were obtained:
[1] = physchem; conditions: 22 °C
Description: Cystine, a sulfur-sulfur dimer of cysteine, can form in the presence of oxygen (air) in cysteine solutions. Cystine, especially the free base, is several orders of magnitude less soluble in aqueous solutions than cysteine, and the solubility of cystine decreases as the pH increases.

[2] = cited from earlier work
[3] = aqueous with cosolvent or surfactant or cyclodextrin

Structure (SMILES) | solubility [1, 3] | solubility ([1]; water) | solubility ([2]; pH 1.0) | solubility ([2]; pH 1.4)
Cl.Cl.N[C@@H](CSSC[C@H](N)C(=O)O)C(=O)O [Cystine Dihydrochloride] | 9930 µg/mL | 1040 µg/mL | – | –
N[C@@H](CS)C(=O)O [Cysteine free base, Cysteine] | – | 18700 µg/mL (≈ 155000 µM) | – | –
N[C@@H](CSSC[C@H](N)C(=O)O)C(=O)O [Cystine free Base, Cystine] | 590 µg/mL (≈ 2460 µM) | 140 µg/mL (≈ 583 µM) | approximately 4 mg/mL | approximately 1 mg/ml
